In PubChem BioAssay (NCI) one finds GI50 and TGI data, which are given here for nine compounds.

Common to all, as to test: DTP human tumour cell line panel, 48 h
Test [1] has as its system MDA-MB-231 breast.
In test [2] the test system is 786-0 renal.
For test [3], the system named is UO-31 renal.
For test [4], the system named is M14 melanoma.
Test [5] has as its system A549 NSCLC.
The test system of test [6] is OVCAR-3 ovarian.
Test [7] relates to HCT-116 colon.
For test [8], the system named is A498 renal.
The subject of test [9] is T-47D breast.
Test [10] has as its system SN12C renal.

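Tested at 5 concentrations; 48 h exposure; 96-well plates; endpoints linearly interpolated, else capped at highest concentration. GI50 marks 50% less growth. TGI: total growth inhibition.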

As to `Cc1cc(S(=O)(=O)Nc2nnc(-c3ccccc3)c(-c3ccccc3)n2)c(SCc2ccccc2)cc1Cl`, the GI50 was 20.2 µM in test [1]; 14.5 µM in test [2]; 26 µM in test [3]; 20.7 µM in test [4]; 27.7 µM in test [5]; 17.9 µM in test [6]. Moreover, the GI50 in test [7] was 19.8 µM; in test [8] it was 19.8 µM; in test [9] it was 23.8 µM. In addition, the TGI in test [1] is 41.9 µM; in [2], 29.8 µM; in [3], 73.5 µM; in test [4] it was 42.1 µM; in [5], more than 100 µM; in [6], 34.8 µM. Also, the TGI in [7] is 38.9 µM; in test [8] it was 39.1 µM; in test [9], 52.3 µM.
For `CC1(C)OCC(CO)(Nc2nc(N3CC3)nc(N3CC3)n2)CO1`, the TGI in test [2] came to 18.7 µM; in [3] it was 23.1 µM; in test [4], 25.5 µM; in test [5], 34.3 µM; in [6] it was 49.4 µM; in test [7] it was 27.5 µM. Also, the values for the TGI in test [10], in test [8] and in test [9] were 58.6 µM, 24.2 µM and 45 µM, respectively.
Consider `CC1=Cc2cc3[n-]c(cc4nc(cc5[n-]c(cc1n2)cc5C)C(C)=C4CCC(=O)O)c(CCC(=O)O)c3C.[Pd+2]`, for which the GI50 is more than 21.8 µM in test [2]; 9.73 µM in [3]; 12.7 µM in [4]; 32.1 µM in test [5]; 7.51 µM in test [6]; 24.1 µM in test [7]. The GI50 was 9.17 µM in test [10], 12.6 µM in test [8] and more than 100 µM in test [9]. The TGI in test [2] is more than 49.6 µM; in test [3] it was 21.5 µM; in test [4], 31.1 µM; in test [5], 54.7 µM; in test [6], 27.1 µM; in [7], 41.4 µM. Also, the results for the total growth inhibition concentration (TGI) in test [10], in test [8] and in [9] were 17.9 µM, 29.8 µM and more than 100 µM, respectively.
For the compound `O=C(Oc1ccc(CCl)cc1)c1ccccc1`, the GI50 was 0.149 µM in [1]; 0.125 µM in test [2]; 0.173 µM in [3]; 0.125 µM in test [4]; 1.16 µM in test [5]; 0.164 µM in [6]. For the same compound, the GI50 was 0.138 µM in [7] and 0.221 µM in [8]. Further, the TGI in test [1] worked out at 0.311 µM; in test [2] it was 0.286 µM; in [3], 0.319 µM; in test [4] it was 0.348 µM; in test [5] it was 2.42 µM; in test [6], 0.304 µM. The values for the total growth inhibition concentration (TGI) in test [7] and in test [8] were 0.426 µM and 1.83 µM, respectively.
Turning to `OCCCCC#Cc1ccccc1C#Cc1ccccc1C(F)(F)F`, the GI50 in [1] is 2.83 µM; in test [2] it was 10.3 µM; in [3], 11.8 µM; in test [5], 4.36 µM; in test [6] it was 2.3 µM; in test [7], 6.46 µM. For the same compound, the GI50 in [10] was 12.2 µM; in test [8] it was 5.79 µM; in test [9] it was 19.8 µM. In addition, the TGI in [1] amounted to 12.4 µM; in test [2], 24.9 µM; in [3], 24.1 µM; in test [5], 16.6 µM; in [6] it was 9.28 µM; in test [7], 21.3 µM. The TGI in test [10] amounted to 26.5 µM; in test [8], 19.8 µM; in test [9], 47.2 µM.
Take `O=C(Nc1ccc(Cl)cc1)c1cc2ccccc2cc1O`: the GI50 is 5.83 µM in test [1]; 3.81 µM in test [2]; 2.03 µM in test [3]; 4.54 µM in test [5]; 2.01 µM in test [6]; 2.19 µM in test [7]. Besides, the GI50 was 2.46 µM in test [10], 2.23 µM in test [8] and 1.11 µM in [9]. For the same compound, the TGI was more than 100 µM in test [1]; more than 100 µM in [2]; more than 100 µM in [3]; more than 100 µM in test [5]; 6.67 µM in test [6]; 16.5 µM in test [7]. In addition, the TGI in [10] is more than 100 µM; in [8], 8.37 µM; in [9], 9.49 µM.
Take `Cc1nc2cccc(NCc3ccc(C(=O)NO)cc3)c2c(=O)n1-c1ccccc1`: the GI50 in test [1] was 2.5 µM; in [2], 1.81 µM; in [3] it was 1.37 µM; in test [5], 2.22 µM; in [6], 2.16 µM; in test [7], 1.35 µM. Also, the GI50 in [10] is 2.14 µM; in [8], 1.7 µM. Also, the TGI in [1] was 6.79 µM; in test [2] it was 3.78 µM; in [3], 3.15 µM; in test [5], 5.17 µM; in test [6] it was 4.9 µM; in test [7], 4.76 µM. Also, the TGI in test [10] was 5.38 µM; in test [8], 3.28 µM.
`CC[N+](CC)(CC)CCCn1c2c(c3ccccc3c1=O)C(=O)c1ccccc1-2`: the GI50 was 17.6 µM in test [1]; 7.35 µM in test [2]; 3.1 µM in test [4]; 6.27 µM in [5]; 9.05 µM in [6]; 1.95 µM in [7]. The values for the GI50 in [10] and in test [9] were 5.59 µM and 98.1 µM, respectively. Further, the TGI turned out to be 84.2 µM in [1]; 32 µM in test [2]; 12.1 µM in [4]; 35.8 µM in [5]; 50.2 µM in [6]; 9.27 µM in [7]. For the same compound, the TGI in [10] and in test [9] was more than 100 µM each time.
With `COc1ccc2[nH]c(Cl)c(/C=C3/C(=O)N(C)c4ccccc43)c2c1`, the GI50 is 36.5 µM in [1]; more than 100 µM in test [2]; more than 100 µM in [3]; more than 100 µM in test [4]; more than 100 µM in [5]; 55.1 µM in [6]. Besides, the GI50 in test [7] is 42.5 µM; in test [9], 13.1 µM. Moreover, the TGI in [1], in [2], in test [3], in test [4], in test [5] and in [6] was more than 100 µM each time. Further, the TGI in test [7] was more than 100 µM; in test [9], 63.4 µM.

What is called GI50 is the concentration that inhibits growth by half. As usually defined, the TGI is the concentration at which net growth stops.
